Reference: PMC11945475, “Nasal Administration of a Nanoemulsion Based on Methyl Ferulate and Eugenol Encapsulated in Chitosan Oleate: Uptake Studies in the Central Nervous System” (Pharmaceutics, 2025)

Key:
[1] = Intravenous administration of Fer-Me to rats (bloodstream and CSF pharmacokinetics); assay type: in vivo, rat; details: rat, in vivo, iv
Protocol: Charles River laboratories, Calco, Italy) bloodstream and CSF. […] The sample size (4 rats/group) has been chosen based on our previous studies. The experimental procedures were approved by the Italian Ministry of Health and were performed in accordance with the European Communities Council Directive of September 2010 (2010/63/EU). According to the ARRIVE guidelines, all possible efforts were made to minimize animal pain and discomfort and to reduce the number of experimental subjects. Fer-Me solution (2.5 mg/mL final concentration, 15% v/v EtOH content) was prepared by first dissolving Fer-Me in EtOH and then adding this latter solution to a saline solution (0.9% NaCl). […] The aqueous phase was then subjected to a double extraction with 1 mL of H2O-saturated ethyl acetate. […] Data were acquired and processed through CLASS-VP Software; version 7.2.1 (Shimadzu Italia, Milan, Italy). The mobile phase was eluted under isocratic conditions (0.8 mL/min) and was constituted by a mixture of acetic acid in H2O (0.4% v/v) and MeOH, whose ratio was 40:60 (v/v). The UV-Vis detector was set at 320 nm for the detection of Fer-Me, its hydrolysis product Fer, and Caf-Me, which was utilized as an internal standard during blood sample extraction. […] The average recoveries were approximately 40% for Fer and 58% for Fer-Me. For this reason, the concentrations of these compounds were determined by their peak area ratio with respect to the internal standard (Caf-Me). […] Fer-Me in vivo half-life (t1/2) in the rats' bloodstream was determined using nonlinear regression (exponential decay) of concentration values quantified at appropriate time intervals after infusion, further validated by applying linear regression to the semi-logarithmic plot.

[2] = male, Sprague-Dawley, rat, in vivo
Protocol: Fer-Me and eugenol were nasally co-administered as loaded in CS-OA NE to evaluate their concentration–time profiles in male Sprague-Dawley rats’ (200–250 g body weight; Charles River laboratories, Calco, Italy) bloodstream and CSF. The results were compared with those obtained by the rat intravenous administrations of Fer-Me (10 mg/kg; present study), and 20 mg/kg of eugenol. The sample size (4 rats/group) has been chosen based on our previous studies. The experimental procedures were approved by the Italian Ministry of Health and were performed in accordance with the European Communities Council Directive of September 2010 (2010/63/EU). According to the ARRIVE guidelines, all possible efforts were made to minimize animal pain and discomfort and to reduce the number of experimental subjects.

[3] = cited from earlier work

Structure (SMILES) | Tmax in CSF [1] | kinetic elimination constant (kel) ([1]; 10 mg/kg) | dose-normalized CSF AUC of eugenol relative to Fer-Me [2] | absolute bioavailability ([3]; eugenol oral administration) | AUC in CSF ([3]; rat, oral dose of 500 mg/kg of eugenol)
COC(=O)/C=C/c1ccc(O)c(OC)c1 [Fer-Me, methyl ferulate] | 20 min | 0.069 ± 0.003 min⁻¹ | – | – | –
C=CCc1ccc(O)c(OC)c1 [eugenol] | – | – | about 16 times | about 4% | 30.97 ± 2.18 µg·min/mL
